Measurements as given in US20070117743A1, “New antitumoral compounds” (priority 2003, published 2007).
Where a SMILES comes first, the peptide text is derived from it. Bridges are numbered along the chain shown (N, C = ends). [ ]: non-standard residue; d: D form. The star is where a group is joined. d(aIle) = CC[C@H](C)[C@@H](N)C(=O)O; d(aThr) = C[C@@H](O)[C@@H](N)C(=O)O; Hexanoyl(5-Me) = CC(C)CCCC(=O)*; Orn = NCCC[C@H](N)C(=O)O; Dhb = C/C=C(\N)C(=O)O

What was measured:
Type in all cases: cell-based, human
LoVo-Dox = test: SRB colorimetric assay of cell growth and viability, LoVo-Dox; settings: 48 hours exposure; for CC50: read-out: LC50 LOVO-DOX
Description: (§1) The finality of this assay is to interrupt the growth of a “in vitro” tumor cell culture by means a continued exhibition of the cells to the sample to be testing.
A colorimetric type of assay, using sulforhodamine B (SRB) reaction has been adapted for a quantitative measurement of cell growth and viability [following the technique described by Philip Skehan, et al. (1990), New colorimetric cytotoxicity assay for anticancer drug screening, J. Natl. Cancer Inst., 82:1107-1112].
(§2) This form of the assay employs 96 well cell culture microplates of 9 mm diameter (Faircloth, 1988; Mosmann, 1983). Most of the cell lines are obtained from American Type Culture Collection (ATCC) derived from different human cancer types.
(§3) Cells are maintained in RPMI 1640 10% FBS, supplemented with 0.1 g/l penicillin and 0.1 g/l streptomycin sulfate and then incubated at 37° C., 5% CO2 and 98% humidity. For the experiments, cells were harvested from subconfluent cultures using trypsin and resuspended in fresh medium before plating.
(§4) Cells are seeded in 96 well microtiter plates, at 5×10^3 cells per well in aliquots of 195 μL medium, and they are allowed to attach to the plate surface by growing in drug free medium for 18 hours. Afterward, samples are added in aliquots of 5 μL in a ranging from 10 to 10^−8 μg/mL, dissolved in DMSO:EtOH:PBS (0.5:0.5:99). After 48 hours exposure, the antitumor effect are measured by the SRB methodology: cells are fixed by adding 50 μL of cold 50% (wt/vol) trichloroacetic acid (TCA) and incubating for 60 minutes at 4° C. Plates are washed with deionized water and dried. One hundred μL of SRB solution (0.4% wt/vol in 1% acetic acid) is added to each microtiter well and incubated for 10 minutes at room temperature. Unbound SRB is removed by washing with 1% acetic acid. Plates are air dried and bound stain is solubilized with Tris buffer. Optical densities are read on a automated spectrophotometric plate reader at a single wavelength of 490 nm.
(§5) The values for mean+/− SD of data from triplicate wells are calculated. Some parameters for cellular responses can be calculated: GI=growth inhibition, TGI=total growth inhibition (cytostatic effect) and LC=cell killing (cytotoxic effect).

DU-145 = test: SRB colorimetric assay of cell growth and viability, DU-145; settings: 48 hours exposure
Description: as §1, §2, §3, §4, §5

K-562 = test: SRB colorimetric assay of cell growth and viability, K-562; settings: 48 hours exposure; for CC50: read-out: LC50 K-562
Description: as §1, §2, §3, §4, §5

SK-MEL-28 = test: SRB colorimetric assay of cell growth and viability, SK-MEL-28; settings: 48 hours exposure; for CC50: read-out: LC50 MEL-28
Description: as §1, §2, §3, §4, §5

HeLa-APL = test: SRB colorimetric assay of cell growth and viability, HeLa-APL; settings: 48 hours exposure; for CC50: read-out: LC50 HELA-APL
Description: as §1, §2, §3, §4, §5

HT-29 = test: SRB colorimetric assay of cell growth and viability, HT-29; settings: 48 hours exposure; for GI50: read-out: GI50 HT-29; for CC50: read-out: LC50 HT-29
Description: as §1, §2, §3, §4, §5

HeLa = test: SRB colorimetric assay of cell growth and viability, HeLa; settings: 48 hours exposure; for CC50: read-out: LC50 HELA
Description: as §1, §2, §3, §4, §5

A-549 = test: SRB colorimetric assay of cell growth and viability, A-549; settings: 48 hours exposure; for GI50: read-out: GI50 A-549; for CC50: read-out: LC50 A-549
Description: as §1, §2, §3, §4, §5

IGROV-1 = test: SRB colorimetric assay of cell growth and viability, IGROV-1; settings: 48 hours exposure
Description: as §1, §2, §3, §4, §5

LoVo = test: SRB colorimetric assay of cell growth and viability, LoVo; settings: 48 hours exposure; for CC50: read-out: LC50 LOVO
Description: as §1, §2, §3, §4, §5

IGROV-ET = test: SRB colorimetric assay of cell growth and viability, IGROV-ET; settings: 48 hours exposure; for CC50: read-out: LC50 IGROV-ET
Description: as §1, §2, §3, §4, §5

PANC-1 = test: SRB colorimetric assay of cell growth and viability, PANC-1; settings: 48 hours exposure; for CC50: read-out: LC50 PANC-1
Description: as §1, §2, §3, §4, §5

With C/C=C1\NC(=O)[C@H](Cc2ccccc2)NC(=O)[C@@H](C(C)C)NC(=O)[C@@H]([C@@H](C)CC)NC(=O)[C@H](NC(=O)[C@H](NC(=O)[C@H](CCCN)NC(=O)[C@H]2CCCN2C(=O)[C@H](NC(=O)[C@@H](NC(=O)CNC(=O)CCCC(C)C)C(C)C)C(C)C)[C@@H](C)CC)[C@@H](C)OC(=O)[C@H](C(C)C)NC1=O [Compound 53, [Gly^12, noD-Val^13]-KF] ({Hexanoyl(5-Me)}-GV[dV][dP][Orn][d(aIle)][d(aThr)][d(aIle)][dV]F[Dhb]V; ester 7-C) the GI50 (LoVo-Dox) was 7.49 µM, the “TGI LOVO-DOX” value (LoVo-Dox) was 7.49E−06 Molar and the CC50 (LoVo-Dox) was 7.49 µM. For the same compound, the GI50 (DU-145) was 7.49 µM, the LC50 (concentration causing 50% net cell kill) (DU-145) was 7.49 µM and the “TGI DU-145” value (DU-145) was 7.49E−06 Molar. The GI50 (K-562) was 7.49 µM, the “TGI K-562” value (K-562) was 7.49E−06 Molar and the CC50 (K-562) was 7.49 µM. The GI50 (SK-MEL-28) was 7.49 µM, the “TGI MEL-28” value (SK-MEL-28) was 7.49E−06 Molar and the CC50 (SK-MEL-28) was 7.49 µM. The GI50 (HeLa-APL) was 7.49 µM, the “TGI HELA-APL” value (HeLa-APL) was 7.49E−06 Molar and the CC50 (HeLa-APL) was 7.49 µM. For the same compound, the “TGI HT-29” value (HT-29) was 7.49E−06 Molar, the GI50 (HT-29) was 7.49 µM and the CC50 (HT-29) was 7.49 µM. For the same compound, the GI50 (HeLa) was 7.49 µM, the “TGI HELA” value (HeLa) was 7.49E−06 Molar and the CC50 (HeLa) was 7.49 µM. The “TGI A-549” value (A-549) was 7.49E−06 Molar, the GI50 (A-549) was 7.49 µM and the CC50 (A-549) was 7.49 µM. The GI50 (IGROV-1) was 7.49 µM, the LC50 (concentration causing 50% net cell killing) (IGROV-1) was 7.49 µM and the “TGI IGROV” value (IGROV-1) was 7.49E−06 Molar. For the same compound, the GI50 (LoVo) was 5.29 µM, the “TGI LOVO” value (LoVo) was 7.49E−06 Molar and the CC50 (LoVo) was 7.49 µM. For the same compound, the GI50 (IGROV-ET) was 3.31 µM, the “TGI IGROV-ET” value (IGROV-ET) was 7.49E−06 Molar and the CC50 (IGROV-ET) was 7.49 µM. For the same compound, the GI50 (PANC-1) was 4.17 µM, the “TGI PANC-1” value (PANC-1) was 7.49E−06 Molar and the CC50 (PANC-1) was 7.49 µM.
C/C=C1\NC(=O)[C@H](Cc2ccccc2)NC(=O)[C@@H](C(C)C)NC(=O)[C@@H]([C@@H](C)CC)NC(=O)[C@H](NC(=O)[C@H](NC(=O)[C@H](CCCN)NC(=O)[C@H]2CCCN2C(=O)[C@H](NC(=O)[C@@H](NC(=O)[C@@H](NC(=O)[C@@H](CC(C)C)NC(=O)CCCC(C)C)[C@@H](C)O)C(C)C)C(C)C)[C@@H](C)CC)[C@@H](C)OC(=O)[C@H](C(C)C)NC1=O [Compound 35, [D-Leu^13]-KF] was tested, and the GI50 (LoVo-Dox) was 0.158 µM, the “TGI LOVO-DOX” value (LoVo-Dox) was 3.46E−07 Molar and the CC50 (LoVo-Dox) was 0.871 µM. The GI50 (DU-145) was 0.905 µM, the LC50 (concentration causing 50% net cell kill) (DU-145) was 3.53 µM and the “TGI DU-145” value (DU-145) was 1.79E−06 Molar. The GI50 (K-562) was 1.23 µM, the “TGI K-562” value (K-562) was 2.30E−06 Molar and the CC50 (K-562) was 4.28 µM. For the same compound, the GI50 (SK-MEL-28) was 1.17 µM, the “TGI MEL-28” value (SK-MEL-28) was 2.10E−06 Molar and the CC50 (SK-MEL-28) was 3.79 µM. For the same compound, the GI50 (HeLa-APL) was 0.0133 µM, the “TGI HELA-APL” value (HeLa-APL) was 1.31E−06 Molar and the CC50 (HeLa-APL) was 6.7 µM. For the same compound, the “TGI HT-29” value (HT-29) was 1.62E−06 Molar, the GI50 (HT-29) was 0.771 µM and the CC50 (HT-29) was 3.39 µM. For the same compound, the GI50 (HeLa) was 0.878 µM, the “TGI HELA” value (HeLa) was 1.74E−07 Molar and the CC50 (HeLa) was 3.43 µM. For the same compound, the “TGI A-549” value (A-549) was 9.58E−07 Molar, the GI50 (A-549) was 0.124 µM and the CC50 (A-549) was 2.65 µM. The GI50 (IGROV-1) was 0.717 µM, the LC50 (concentration causing 50% net cell killing) (IGROV-1) was 3.24 µM and the “TGI IGROV” value (IGROV-1) was 1.53E−06 Molar. For the same compound, the GI50 (LoVo) was 0.2 µM, the “TGI LOVO” value (LoVo) was 8.04E−07 Molar and the CC50 (LoVo) was 2.28 µM. For the same compound, the GI50 (IGROV-ET) was 0.684 µM, the “TGI IGROV-ET” value (IGROV-ET) was 1.49E−06 Molar and the CC50 (IGROV-ET) was 3.26 µM. The GI50 (PANC-1) was 0.751 µM, the “TGI PANC-1” value (PANC-1) was 1.87E−06 Molar and the CC50 (PANC-1) was 4.67 µM.
